Among the data in patent publication US20230122249A1, “1H-PYRAZOLO[4,3-d]PYRIMIDINE COMPOUNDS AS TOLL-LIKE RECEPTOR 7 (TLR7) AGONISTS” (BRISTOL-MYERS SQUIBB COMPANY, priority 2020, published 2023) are EC50 values, retold here.

The subject of experiment [1] is CD69 in human whole blood. The experiment in a line: Induction of CD69 in human whole blood (hWB). It counts as cell-based. Conditions: heparinized human whole blood, 17 h, CD69 surface staining; 100% set to 1 uM resiquimod; average where assay repeated. The procedure: The induction of Type I interferon (IFN) MX-1 genes and the B-cell activation marker CD69 are downstream events that occur upon activation of the TLR7 pathway. The following is a human whole blood assay that measures their induction in response to a TLR7 agonist.
Heparinized human whole blood was harvested from human subjects and treated with test TLR7 agonist compounds at 1 mM. The blood was diluted with RPMI 1640 media and Echo was used to predot 10 nL per well giving a final concentration of 1 uM (10 nL in 10 uL of blood). After mixing on a shaker for 30 sec, the plates were covered and placed in a 37° C. chamber for o/n=17 hrs. Fixing/lysis buffer was prepared (5×->1×in H2O, warm at 37° C.; Cat# BD 558049) and kept the perm buffer (on ice) for later use.
For surface markers staining (CD69): prepared surface Abs: 0.045 ul hCD14-FITC (ThermoFisher Cat # MHCD1401)+0.6 ul hCD19-ef450 (ThermoFisher Cat #48-0198-42)+1.5 ul hCD69-PE (cat# BD555531)+0.855 ul FACS buffer. Added 3 ul/well, spin1000 rpm for 1 min and mixed on shaker for 30 sec, put on ice for 30 mins. Stop stimulation after 30 minutes with 70 uL of prewarmed 1×fix/lysis buffer and use Feliex mate to resuspend (15 times, change tips for each plate) and incubate at 37° C. for 10 minutes.
Centrifuge at 2000 rpm for 5 minutes aspirate with HCS plate washer, mix on shaker for 30 sec and then wash with 70 uL in dPBS and pelleted 2 xs (2000 rpm for 5 min) and 50 ul wash in FACS buffer pelleted 1 xs(2000 rpm for 5 min). Mix on shaker for 30 sec. For Intracellular markers staining (MX-1): Add 50 ul of BD Perm buffer III and mix on shaker for 30 sec. Incubate on ice for 30 minutes (in the dark). Wash with 50 uL of FACS buffer 2×(spin @2300 rpm×5 min after perm) followed by mixing on shaker for 30 sec. Resuspended in 20 ul of FACS buffer containing MX1 antibody ( )(4812)-Alexa 647: Novus Biologicals #NBP2-43704AF647) 20 ul FACS bf+0.8 ul hlgG+0.04 ul MX-1. Spin 1000 rpm for 1 min, mix on shaker for 30 se and the samples were incubated at RT in the dark for 45 minutes followed by washing 2×FACS buffer (spin @2300 rpm×5 min after perm). Resuspend 20 ul (35 uL total per well) of FACS buffer and cover with foil and place in 4° C. to read the following day. Plates were read on iQuePlus. The results were loaded into toolset and […] curves are generated in curve master. The y-axis 100% is set to 1 uM of resiquimod.

Another experiment has as its target T1, human TLR7 (Homo sapiens, UniProt Q9NYK1).
T1 construct: host or cells: HEK-Blue TLR7 cells (engineered human embryonic kidney cells)
T1 sequence (Q9NYK1 27-1049): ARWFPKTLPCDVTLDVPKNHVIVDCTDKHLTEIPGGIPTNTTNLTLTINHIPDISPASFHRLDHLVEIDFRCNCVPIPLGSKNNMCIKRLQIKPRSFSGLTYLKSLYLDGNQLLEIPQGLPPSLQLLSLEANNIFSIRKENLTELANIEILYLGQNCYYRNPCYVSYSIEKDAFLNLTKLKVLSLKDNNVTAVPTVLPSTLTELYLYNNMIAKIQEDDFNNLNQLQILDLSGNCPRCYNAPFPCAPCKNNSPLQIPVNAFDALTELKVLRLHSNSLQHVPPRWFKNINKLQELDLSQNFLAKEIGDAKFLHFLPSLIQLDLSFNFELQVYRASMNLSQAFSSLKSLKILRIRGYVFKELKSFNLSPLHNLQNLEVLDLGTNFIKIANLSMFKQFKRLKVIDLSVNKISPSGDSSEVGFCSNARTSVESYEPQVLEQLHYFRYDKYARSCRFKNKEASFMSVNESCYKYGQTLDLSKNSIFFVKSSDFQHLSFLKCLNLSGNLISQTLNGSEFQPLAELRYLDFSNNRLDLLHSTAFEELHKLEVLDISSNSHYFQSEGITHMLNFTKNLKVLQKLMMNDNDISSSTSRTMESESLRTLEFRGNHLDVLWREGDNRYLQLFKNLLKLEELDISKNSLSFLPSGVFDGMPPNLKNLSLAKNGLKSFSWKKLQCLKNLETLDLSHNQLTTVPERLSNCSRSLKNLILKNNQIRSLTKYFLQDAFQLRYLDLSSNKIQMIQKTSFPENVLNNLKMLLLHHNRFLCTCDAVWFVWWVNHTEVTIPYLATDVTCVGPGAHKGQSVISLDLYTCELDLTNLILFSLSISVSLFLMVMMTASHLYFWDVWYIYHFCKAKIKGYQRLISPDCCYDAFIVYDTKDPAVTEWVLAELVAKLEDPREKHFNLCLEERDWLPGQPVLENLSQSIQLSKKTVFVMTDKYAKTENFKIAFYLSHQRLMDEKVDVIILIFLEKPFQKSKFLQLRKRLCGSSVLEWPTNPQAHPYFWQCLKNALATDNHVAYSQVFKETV
The experiment in a line: Human TLR7 agonist activity (hTLR7 reporter) assay in HEK-Blue TLR7 cells, SEAP readout. As to conditions: 18 h treatment, average where assay repeated. It counts as cell-based. Here is the method:
This procedure describes a method for assaying human TLR7 (hTLR7) agonist activity of the compounds disclosed in this specification.
HEK-Blue™ TLR7 cells were added to each well of a 384-well tissue-culture plate (15,000 cells per well) and incubated 16-18 h at 37° C., 5% CO2. Compounds (100 nl) were dispensed into wells containing the HEK-Blue™ TLR cells and the treated cells were incubated at 37° C., 5% CO2. After 18 h treatment ten microliters of freshly-prepared Quanti-Blue™ reagent (Invivogen) was added to each well, incubated for 30 min (37° C., 5% CO2) and SEAP levels measured using an Envision plate reader (OD=620 nm). The half maximal effective concentration values (EC50; compound concentration which induced a response halfway between the assay baseline and maximum) were calculated.

Regarding `COc1cc(CN2CC3(CNC3)C2)ccc1Cn1ncc2nc(N)nc(NCC3CC(C4CC4)C3)c21` (stereo not shown) [Compound 152], the concentration for a half-maximal effect (EC50) in experiment [1] turned out to be 152 nM; at human TLR7 it was 167 nM.

Consider `COc1cc(C(=O)N2CC3(CN(C)C3)C2)ccc1Cn1ncc2nc(N)nc(NCC3CC4(CCC4)C3)c21` [Compound 200], for which the 50% effective concentration (EC50) was 130 nM in experiment [1] and 124 nM on human TLR7.

On to `COc1cc(CN(C)C)ccc1Cn1ncc2nc(N)nc(NCC3CC4(C3)CC(F)(F)C4)c21` [Compound 186], for which the figures for the concentration giving a half-maximal response (EC50) (in experiment [1]; at human TLR7) were 783 nM and 950 nM, respectively.

Take `CCC[C@@H](CCO)Nc1nc(N)nc2cnn(Cc3ncc(C4CC5(C4)CN(C(C)C)C5)cc3OC)c12` [Compound 251]: the concentration for a half-maximal effect (EC50) in experiment [1] turned out to be 1.8 nM; at human TLR7 it was 134 nM.

Consider `CCC[C@@H](CCO)Nc1nc(N)nc2cnn(Cc3ncc(C4=CC5(CCN(C6CCOCC6)CC5)C4)cc3OC)c12` [Compound 273, (3S)-3-{[5-amino-1-({3-methoxy-5-[7-(oxan-4-yl)-7-azaspiro[3.5]non-1-en-2-yl]pyridin-2-yl}methyl)-1H-pyrazolo[4,3-d]pyrimidin-7-yl]amino}hexan-1-ol], for which the EC50 came out at 1.5 nM in experiment [1] and 47.5 nM at human TLR7.

In the case of `COc1cc(C(=O)NCCN(C)C)ccc1Cn1ncc2nc(N)nc(NCC3CC4(CC4)C3)c21` [Compound 234], the EC50 was determined as 10.2 nM in experiment [1] and 93.2 nM on human TLR7.

Consider `CCC[C@@H](CCO)Nc1nc(N)nc2cnn(Cc3ccc(CN4CC5(CCOCC5)C4)cc3OC)c12` [Compound 113], for which the values for the concentration giving a half-maximal response (EC50) (in experiment [1]; on human TLR7) were 0.5 nM and 4.6 nM, respectively.

Take `COc1cc(CN2CC3(CN(C)C3)C2)ccc1Cn1ncc2nc(N)nc(NCc3cc(C)on3)c21` [Compound 211]: the EC50 in experiment [1] came to 33.7 nM; at human TLR7, 640 nM.

For `CCC[C@@H](CCO)Nc1nc(N)nc2cnn(Cc3ccc(CN4CC5(C4)CN(C(C)C)C5)cc3OC)c12` [Compound 216], the EC50 was determined as 1.3 nM in experiment [1] and 7.3 nM on human TLR7.

As to `CCC[C@@H](CCO)Nc1nc(N)nc2cnn(Cc3ncc(C4=CC5(CCN(C(C)C)CC5)C4)cc3OC)c12` [Compound 274], the EC50 turned out to be 1.1 nM in experiment [1] and 82.3 nM at human TLR7.

On to `CCC[C@@H](CCO)Nc1nc(N)nc2cnn(Cc3ccc(C(=O)N4CC5(C4)CN(C4CCOCC4)C5)cc3OC)c12` [Compound 229], for which the concentration giving a half-maximal response (EC50) in experiment [1] was 37.6 nM; at human TLR7 it was 37.9 nM.

Take `COc1cc(C(=O)NCCCN(C)C)ccc1Cn1ncc2nc(N)nc(NCC3CC4(CC4)C3)c21` [Compound 231]: the EC50 in experiment [1] turned out to be 32.4 nM; at human TLR7, 166 nM.

Turning to `COc1cc(C(=O)N2C[C@H]3CNC[C@H]3C2)ccc1Cn1ncc2nc(N)nc(NCC3CC4(C3)CC4(F)F)c21` (stereo partly shown) [Compound 159], the concentration giving a half-maximal response (EC50) in experiment [1] amounted to 1000 nM; on human TLR7 it was 909 nM.

Turning to `COc1cc(C(=O)N2CCN(S(C)(=O)=O)CC2)ccc1Cn1ncc2nc(N)nc(NCC3CC4(CC4)C3)c21` [Compound 236], the EC50 in experiment [1] came to 284 nM; on human TLR7, 199 nM.

`COc1cc(C(=O)N2CC3(CN(C)C3)C2)ccc1Cn1ncc2nc(N)nc(NCC3CC4(C3)CC(F)(F)C4)c21` [Compound 187]: the concentration giving a half-maximal response (EC50) in experiment [1] turned out to be 420 nM; at human TLR7, 2310 nM.

As for `COc1cc(C(=O)N(C)CCN(C)C)ccc1Cn1ncc2nc(N)nc(NCC3CC4(CC4)C3)c21` [Compound 222], the EC50 in experiment [1] worked out at 2.4 nM; at human TLR7, 16 nM.

For `CCCCNc1nc(N)nc2cnn(Cc3ccc(CN4CC5(C4)CN(C(=O)C4(C)CC4)C5)cc3OC)c12` [Compound 111], the EC50 in experiment [1] stood at 24.9 nM; at human TLR7, 52.5 nM.

As to `COc1cc(C(=O)N2C[C@H]3CN(C)C[C@H]3C2)ccc1Cn1ncc2nc(N)nc(NCC3CC4(C3)CC(F)(F)C4)c21` [Compound 188], the 50% effective concentration (EC50) in experiment [1] came out at 493 nM; at human TLR7, 810 nM.

Take `COc1cc(CN2CC3(C2)CN(C(C)C)C3)ccc1Cn1ncc2nc(N)nc(NCc3noc(C)n3)c21` [Compound 263]: the EC50 in experiment [1] stood at 12.7 nM; at human TLR7, 68.7 nM.

Regarding `CCC[C@@H](CCO)Nc1nc(N)nc2cnn(Cc3ccc(CN4CC5(C4)CN(CC4CC4)C5)cc3OC)c12` [Compound 253], the 50% effective concentration (EC50) in experiment [1] worked out at 1.3 nM; on human TLR7, 14.5 nM.

Regarding `CCC[C@@H](CCO)Nc1nc(N)nc2cnn(Cc3ccc(CN4CC5(C4)CN(CC4CCC4)C5)cc3OC)c12` [Compound 252], the concentration giving a half-maximal response (EC50) in experiment [1] came to 0.4 nM; at human TLR7, 6.1 nM.

As to `COc1cc(C(=O)N2C[C@@H]3C[C@H]2CN3C)ccc1Cn1ncc2nc(N)nc(NCC3CC4(C3)CC4(F)F)c21` (stereo partly shown) [Compound 151], the EC50 in experiment [1] came to 32.4 nM; on human TLR7, 45 nM.

Regarding `CCC[C@@H](CCO)Nc1nc(N)nc2cnn(Cc3ccc(CN4CC5(C4)CN(C(=O)C4(C)CC4)C5)cc3OC)c12` [Compound 107], the concentration giving a half-maximal response (EC50) in experiment [1] is 9.9 nM; on human TLR7 it was 6.6 nM.

Regarding `CN1CCN(C(=O)c2ccc(Cn3ncc4nc(N)nc(NCC5CC6(CC6)C5)c43)c(OC(F)F)c2)CC1` [Compound 221], the EC50 in experiment [1] was found to be 50.6 nM; on human TLR7, 247 nM.

On to `COc1cc(C(=O)NC2CN(C)C2)ccc1Cn1ncc2nc(N)nc(NCC3CC4(CCC4)C3)c21` [Compound 205], for which the EC50 in experiment [1] amounted to 314 nM; on human TLR7, 328 nM.

Consider `COc1cc(C(=O)N[C@@H]2CCN(C)C2)ccc1Cn1ncc2nc(N)nc(NCC3CC4(CC4)C3)c21` [Compound 193], for which the EC50 worked out at 15.2 nM in experiment [1] and 48.1 nM at human TLR7.

For the compound `COc1cc(C(=O)NC2CC3(C2)CN(C)C3)ccc1Cn1ncc2nc(N)nc(NCC3CC4(CC4)C3)c21` (stereo not shown) [Compound 201], the EC50 was 206 nM in experiment [1] and 842 nM on human TLR7.

With `CCC[C@@H](CCO)Nc1nc(N)nc2cnn(Cc3ccc(C(=O)N4CC5(CNC5)C4)cc3OC)c12` [Compound 209], the EC50 in experiment [1] amounted to 195 nM; at human TLR7, 242 nM.

`Nc1nc(NCC2CC3(CC3)C2)c2c(cnn2Cc2ccc(C(=O)C3C[C@H]4CNC[C@H]4N3)cc2OC(F)F)n1` (stereo partly shown) [Compound 224]: the EC50 is 520 nM in experiment [1] and 1400 nM at human TLR7.

In general, EC50 refers to the concentration giving half of the maximal effect. Lower therefore signals higher potency in that assay.
